Laboratory results taken from US20130052162A1, “BOOSTING IMMUNE DEFENSE BY UPREGULATING CCAAT/ENHANCER BINDING PROTEIN EPSILON” (CEDARS-SINAI MEDICAL CENTER, priority 2010, published 2013).
Several values for one entry are separate records, joined by “and”; a condition that tells them apart may be missing. Identical values can stand only once. Entries after “also recorded” stand apart in the source; their conditions may differ.

Legend:
[1] = system: P. aeruginosa; experiment: Human peripheral whole blood killing assay, P. aeruginosa; format: cell-based; conditions: NAM-pretreated human blood
Method: This well described phagocytic survival assay has been previously reported^42. Bacteria was pelleted, washed twice, diluted to the specified inoculum in 25 μl PBS (without Ca^2+ and Mg^2+), and immediately mixed with 75 μl of freshly drawn human or murine peripheral whole blood in sterile heparinized 2 mL round-bottom Eppendorf tubes. When required, murine plasma was obtained by centrifugation of heparinized whole blood at 2000×g for 15 min at RT. Reactions (performed in minimum in triplicate) were incubated at 37° C. for 1-3 h on a rotary shaker, at which time ten-fold serial dilutions were plated on THA for enumeration of surviving CFU.
When required, freshly drawn human or murine peripheral blood was pretreated with NAM (˜0.1 mM or ˜10 mM) or PBS (without Ca^2+ and Mg^2+), prior to inoculation with bacteria.
Participants in the inventors' study included 15 healthy humans with a negative history of infection or antibiotic treatments in the prior 4 weeks. Peripheral blood was collected from individuals in a fasting condition. Polymorph-prep (Axis-Shield, Oslo, Norway) was used for the isolation of PMNs according to the manufacturer's protocol.

[2] = system: S. aureus; experiment: Effect of NAM on growth and viability of S. aureus; format: cell-based, Staphylococcus aureus; conditions: 6 h
Method: The inventors assessed whether NAM, at the concentrations used in the study, adversely affect the growth and viability of S. aureus. PBS was chosen as an inert non-growth medium, and THB was chosen as a suitable growth medium for S. aureus. Seventy-five microliters of NAM (1 mM and 10 mM final concentrations; in either THB or PBS) or THB or PBS alone (respective controls) were placed in sterile 2 mL round-bottom Eppendorf tubes, and then inoculated with S. aureus (˜1×10^4 CFU/mL in 25 μl of PBS or THB) and immediately briefly vortexed. Triplicate reactions were incubated at 37° C. for 1 h, 3 h, and 6 h on a rotary shaker at which time ten-fold serial dilutions were plated on THIA for enumeration of CFU.
In a different assay, S. aureus (˜1×10^8 CFU/mL in THB) was incubated with or without 50 mM NAM. This concentration represents the equivalent molarity of NAM used in the in vivo experiments. Triplicate 1 mL reactions were incubated at 37° C. on a rotary shaker and at various time points (6 h, 12 h, and 24 h) ten-fold serial dilutions were plated on THA for enumeration of CFU. This assay was performed on two independent occasions using inocula generated from three separate bacterial cultures.

[3] = system: S. aureus; experiment: Murine peripheral whole blood killing assay; format: cell-based, mouse
[4] = CBC of peripheral whole blood of WT mice treated in vivo with NAM; parameters: species or system mouse
Method: WT mice treated in vivo with NAM (250 mg/kg/day; i.p.) or PBS (control) for a) 24 h, b) 48 h, and c) 72 h. Then, peripheral whole blood was removed from each of the mice and CBCs were performed. […] (Table 2A-C)

[5] = Ex vivo hematological study (CBC) of human donor blood; format: cell-based; conditions: 1 mM NAM ex vivo
Method: Blood from human donors (no antibiotics within the prior 2 weeks, no immune-boosting supplements, and otherwise healthy) was collected in ETDA tubes. CBC was performed on each blood sample at time zero. Each blood sample was then treated ex vivo with NAM (1 mM) or PBS (control) for 24 h in 6-well non-treated plates at 37 C, 5% CO2 and 95%% humidity with gentle rocking. After 24 h of treatment, CBCs were performed on each blood sample. […] (Table 3)

[6] = 24 h post-treatment, 250 mg/kg/d, individual mice, 250 mg/kg/day
[7] = t = 24 h, individual human donors #1-5

For NC(=O)c1cccnc1 [NAM, Nicotinamide], the “P. aeruginosa CFU recovered / outcome, NAM- vs PBS-treated blood” value [1] was “improved the outcome of infection; also recorded: enhances clearance”, the “direct anti-staphylococcal activity (CFU vs control)” value ([2]; 1 mM and 10 mM NAM in THB or PBS, 1 h, 3 h, no phagocytic cells) was “no direct anti-staphylococcal activity; also recorded: No differences” and the “direct anti-staphylococcal activity (CFU vs control)” value ([2]; 50 mM NAM in THB, 12 h, 24 h) was “No difference in CFU”. The “CFU recovered, NAM- vs PBS-treated blood” value ([3]; C/EBPε−/− blood, 1 mM NAM 24 h, 1 h and 3 h of infection) was “no impact; also recorded: not statistically different”, the “CFU recovered, NAM- vs PBS-treated blood” value ([3]; WT blood, 1 mM NAM 24 h, 1 h and 3 h of infection) was “Significantly less CFU” and the “enhanced killing of S. aureus vs PBS” value ([3]; WT blood, 1 mM NAM pretreatment 24 h) was “more than 3 log10”. For the same compound, the “CFU recovered, NAM- vs PBS-treated blood” value ([3]; WT blood, 1 mM NAM pretreatment for only 4 h) was “did not result in CFU differences”, the “Hematological Abnormalities” value ([4]; 24 h post-treatment, 250 mg/kg/d, individual mice) was “Normal” and the LY [4, 6] was 3.97 K/uL and 1.89 K/uL and 3.84 K/uL and 76.92% and 67.88% and 71.36%. For the same compound, the MO [4, 6] was 0.18 K/uL and 0.28 K/uL and 3.77% and 6.47% and 5.28%, the NE [4, 6] was 0.95 K/uL and 0.65 K/uL and 1.00 K/uL and 18.47% and 23.40% and 18.67% and the WBC [4, 6] was 5.16 K/uL and 2.78 K/uL and 5.38 K/uL. For the same compound, the “WBC, Mean” value ([4]; 24 h post-treatment, 250 mg/kg/d, mean of 10 mice) was 3.63 K/uL, the “Hematological Abnormalities” value ([4]; 48 h post-treatment, 250 mg/kg/d, individual mice) was “Normal” and the WBC ([4]; 48 h post-treatment, 250 mg/kg/d, individual mice, 250 mg/kg/day) was 6.34 K/uL and 1.86 K/uL and 3.30 K/uL and 4.64 K/uL and 2.70 K/uL. The “WBC, Mean” value ([4]; 48 h post-treatment, 250 mg/kg/d, mean of 5 mice) was 3.77 K/uL, the “Hematological Abnormalities” value ([4]; 72 h post-treatment, 250 mg/kg/d, individual mice) was “Normal” and the WBC ([4]; 72 h post-treatment, 250 mg/kg/d, individual mice, 250 mg/kg/day) was 2.20 K/uL and 4.08 K/uL and 5.66 K/uL and 2.24 K/uL and 3.62 K/uL and 6.22 K/uL and 3.06 K/uL and 5.48 K/uL. For the same compound, the “WBC, Mean” value ([4]; 72 h post-treatment, 250 mg/kg/d, mean of 8 mice) was 4.07 K/uL, the “CBCs, NAM- vs PBS-treated mice” value ([4]; mouse, in vivo) was “No differences in CBCs” and the “CBCs, NAM- vs PBS-treated and untreated blood” value ([5]; 24 h) was “No differences in CBCs”. For the same compound, the “ABS MONOS” value [5, 7] was 0.6 1000/UL and 0.5 1000/UL and 0.2 1000/UL and 0.1 1000/UL (2×), the “ABS POLYS” value [5, 7] was 5.4 1000/UL and 2.9 1000/UL and 5.2 1000/UL and 4.2 1000/UL and 4.3 1000/UL and the MONOS [5, 7] was 7% and 9% and 4% and 2% (2×). The POLYS [5, 7] was 61% and 51% and 76% and 63% and 70% and the “WBC COUNT” value [5, 7] was 8.9 1000/UL and 5.6 1000/UL and 6.9 1000/UL and 6.7 1000/UL and 6.1 1000/UL.
